# ChEMBL document CHEMBL5696441 (Nat Chem Biol, 2011)
# pIC50: −log10 of the molar value.
# Key:
# [1] = biological target: Serine/threonine-protein kinase pim-3 (Homo sapiens) (UniProt Q86V86); assay: Inhibition of human PIM3 assessed as residual activity at 1 uM using RBER-GSK3(14-27) as substrate in presence of 33P-ATP by ProQinase assay relative to control
# [2] = biological target: MAP kinase-activated protein kinase 2 (Homo sapiens) (UniProt P49137); assay: Inhibition of human MAPKAPK2 assessed as residual activity at 1 uM using RBER-CHKtide as substrate in presence of 33P-ATP by ProQinase assay relative to control
# [3] = Anti-inflammatory activity against human derived medium respond PBMC cells assessed as inhibition in stimulated IL-1beta cytokine release incubated for 2 hrs in the presence of LPS/SEB/aCD28 by Luminex based sandwich immunoassay; type: functional, cell-based
# [4] = biological target: Serine/threonine-protein kinase PAK 1 (Homo sapiens) (UniProt Q13153); assay: Inhibition of PAK1 (unknown origin) assessed as remaining activity at 1 uM by Kinome scan method relative to control
# [5] = system: Tyrosine-protein kinase ABL1 (Homo sapiens), P00519 [Y253F]; assay: Inhibition of ABL1 Y253F mutant (unknown origin) assessed as remaining activity at 1 uM by Kinome scan method relative to control
# [6] = biological target: Calcium/calmodulin-dependent protein kinase type II subunit alpha (Homo sapiens) (UniProt Q9UQM7); assay: Inhibition of human CAMK2A assessed as residual activity at 1 uM using RBER-CHKtide as substrate in presence of 33P-ATP by ProQinase assay relative to control
# [7] = system: Hepatocyte growth factor receptor (Homo sapiens), P08581 [M1250T]; assay: Inhibition of MET M1250T mutant (unknown origin) assessed as remaining activity at 1 uM by Kinome scan method relative to control
# [8] = biological target: 5'-AMP-activated protein kinase catalytic subunit alpha-1 (Homo sapiens) (UniProt Q13131); assay: Inhibition of human AMPKalpha1 assessed as residual activity at 1 uM using RBER-CHKtide as substrate in presence of 33P-ATP by ProQinase assay relative to control
# [9] = biological target: SRSF protein kinase 3 (Homo sapiens) (UniProt Q9UPE1); assay: Inhibition of human STK23 assessed as residual activity at 1 uM using RBER-CHKtide as substrate in presence of 33P-ATP by ProQinase assay relative to control
# [10] = biological target: Mitogen-activated protein kinase kinase kinase 3 (Homo sapiens) (UniProt Q99759); assay: Inhibition of MAP3K3 (unknown origin) assessed as remaining activity at 1 uM by Kinome scan method relative to control
# [11] = system: Serine/threonine-protein kinase B-raf (Homo sapiens), P15056 [V600E]; assay: Inhibition of BRAF V600E mutant (unknown origin) assessed as remaining activity at 1 uM by Kinome scan method relative to control
# [12] = biological target: Tyrosine-protein kinase Lyn (Homo sapiens) (UniProt P07948); assay: Inhibition of human LYN assessed as residual activity at 1 uM using polyEY as substrate in presence of 33P-ATP by ProQinase assay relative to control
# [13] = biological target: Dual specificity tyrosine-phosphorylation-regulated kinase 4 (Homo sapiens) (UniProt Q9NR20); assay: Inhibition of human DYRK4 assessed as residual activity at 1 uM using RBER-CHKtide as substrate in presence of 33P-ATP by ProQinase assay relative to control
# [14] = Anti-inflammatory activity against human derived high respond PBMC cells assessed as inhibition in stimulated INFgamma cytokine release incubated for 2 hrs in the presence of LPS/SEB/aCD28 by Luminex based sandwich immunoassay; type: functional, cell-based
# [15] = system: Phosphatidylinositol 4,5-bisphosphate 3-kinase catalytic subunit alpha isoform (Homo sapiens), P42336 [Q546K]; assay: Inhibition of PIK3CA Q546K mutant (unknown origin) assessed as remaining activity at 1 uM by Kinome scan method relative to control
# [16] = biological target: Serine/threonine-protein kinase TBK1 (Homo sapiens) (UniProt Q9UHD2); assay: Inhibition of TBK1 (unknown origin) assessed as remaining activity at 1 uM by Kinome scan method relative to control
# [17] = biological target: Misshapen-like kinase 1 (Homo sapiens) (UniProt Q8N4C8); assay: Inhibition of human MINK1 assessed as residual activity at 1 uM using RBER-CHKtide as substrate in presence of 33P-ATP by ProQinase assay relative to control
# [18] = biological target: Casein kinase I isoform gamma-1 (Homo sapiens) (UniProt Q9HCP0); assay: Inhibition of human CK1gamma1 assessed as residual activity at 1 uM using casein as substrate in presence of 33P-ATP by ProQinase assay relative to control
# [19] = biological target: Receptor tyrosine-protein kinase erbB-2 (Homo sapiens) (UniProt P04626); assay: Inhibition of human ERBB2 assessed as residual activity at 1 uM using polyEY as substrate in presence of 33P-ATP by ProQinase assay relative to control
# [20] = biological target: Mitogen-activated protein kinase kinase kinase 6 (Homo sapiens) (UniProt O95382); assay: Inhibition of ASK2 (unknown origin) assessed as remaining activity at 1 uM by Kinome scan method relative to control
# [21] = biological target: SRSF protein kinase 2 (Homo sapiens) (UniProt P78362); assay: Inhibition of human SRPK2 assessed as residual activity at 1 uM using MBP as substrate in presence of 33P-ATP by ProQinase assay relative to control
# [22] = biological target: Protein kinase C epsilon type (Homo sapiens) (UniProt Q02156); assay: Inhibition of PRKCE (unknown origin) assessed as remaining activity at 1 uM by Kinome scan method relative to control
# [23] = system: Epidermal growth factor receptor (Homo sapiens), P00533 [G719C]; assay: Inhibition of EGFR G719C mutant (unknown origin) assessed as remaining activity at 1 uM by Kinome scan method relative to control
# [24] = biological target: Dual specificity protein kinase CLK4 (Homo sapiens) (UniProt Q9HAZ1); assay: Inhibition of CLK4 (unknown origin) assessed as remaining activity at 1 uM by Kinome scan method relative to control
# [25] = system: Mast/stem cell growth factor receptor Kit (Homo sapiens), P10721 [L576P]; assay: Inhibition of KIT L576P mutant (unknown origin) assessed as remaining activity at 1 uM by Kinome scan method relative to control
# [26] = biological target: Casein kinase I isoform alpha (Homo sapiens) (UniProt P48729); assay: Inhibition of human CK1alpha1 assessed as residual activity at 1 uM using casein as substrate in presence of 33P-ATP by ProQinase assay relative to control
# [27] = biological target: MAP kinase-activated protein kinase 3 (Homo sapiens) (UniProt Q16644); assay: Inhibition of human MAPKAPK3 assessed as residual activity at 1 uM using bio-4xCHKT as substrate in presence of 33P-ATP by ProQinase assay relative to control
# [28] = biological target: Serine/threonine-protein kinase PAK 3 (Homo sapiens) (UniProt O75914); assay: Inhibition of human PAK3 assessed as residual activity at 1 uM using bio-4xCHKT as substrate in presence of 33P-ATP by ProQinase assay relative to control
# Dual specificity tyrosine-phosphorylation-regulated kinase 4 (Homo sapiens), sequence (Q9NR20 whole entry): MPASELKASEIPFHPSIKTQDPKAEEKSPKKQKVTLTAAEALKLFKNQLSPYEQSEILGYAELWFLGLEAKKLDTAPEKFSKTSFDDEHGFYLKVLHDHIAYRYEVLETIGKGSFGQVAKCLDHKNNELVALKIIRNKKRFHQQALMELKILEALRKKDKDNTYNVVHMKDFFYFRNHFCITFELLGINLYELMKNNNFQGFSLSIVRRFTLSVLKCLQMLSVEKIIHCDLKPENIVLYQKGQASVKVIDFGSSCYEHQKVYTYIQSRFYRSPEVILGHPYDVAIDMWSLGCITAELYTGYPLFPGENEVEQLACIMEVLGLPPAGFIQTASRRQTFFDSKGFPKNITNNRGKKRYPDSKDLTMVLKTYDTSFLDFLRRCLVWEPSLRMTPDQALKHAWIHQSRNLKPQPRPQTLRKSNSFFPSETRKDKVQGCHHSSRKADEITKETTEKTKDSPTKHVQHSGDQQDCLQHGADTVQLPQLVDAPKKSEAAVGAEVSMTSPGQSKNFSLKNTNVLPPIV
# Protein kinase C epsilon type (Homo sapiens), sequence (Q02156 whole entry): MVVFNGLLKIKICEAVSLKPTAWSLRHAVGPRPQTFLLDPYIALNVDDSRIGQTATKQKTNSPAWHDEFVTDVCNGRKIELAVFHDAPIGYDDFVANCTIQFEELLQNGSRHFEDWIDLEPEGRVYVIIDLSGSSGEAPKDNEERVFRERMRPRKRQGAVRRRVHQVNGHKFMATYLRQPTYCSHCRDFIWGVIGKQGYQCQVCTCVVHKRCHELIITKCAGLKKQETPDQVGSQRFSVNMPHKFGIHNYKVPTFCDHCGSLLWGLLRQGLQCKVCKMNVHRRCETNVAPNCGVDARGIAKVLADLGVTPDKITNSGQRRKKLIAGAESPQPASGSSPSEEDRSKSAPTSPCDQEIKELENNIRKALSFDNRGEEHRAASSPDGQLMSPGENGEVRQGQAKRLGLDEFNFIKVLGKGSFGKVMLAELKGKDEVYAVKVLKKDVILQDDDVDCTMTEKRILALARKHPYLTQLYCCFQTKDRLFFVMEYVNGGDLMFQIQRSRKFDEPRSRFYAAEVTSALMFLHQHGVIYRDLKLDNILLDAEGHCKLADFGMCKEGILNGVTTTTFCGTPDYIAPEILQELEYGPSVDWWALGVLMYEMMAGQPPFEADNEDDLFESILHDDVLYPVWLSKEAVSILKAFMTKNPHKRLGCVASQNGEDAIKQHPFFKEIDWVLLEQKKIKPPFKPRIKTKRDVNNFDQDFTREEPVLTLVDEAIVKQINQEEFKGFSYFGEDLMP
# Casein kinase I isoform alpha (Homo sapiens), sequence (P48729 2-337 limits assumed): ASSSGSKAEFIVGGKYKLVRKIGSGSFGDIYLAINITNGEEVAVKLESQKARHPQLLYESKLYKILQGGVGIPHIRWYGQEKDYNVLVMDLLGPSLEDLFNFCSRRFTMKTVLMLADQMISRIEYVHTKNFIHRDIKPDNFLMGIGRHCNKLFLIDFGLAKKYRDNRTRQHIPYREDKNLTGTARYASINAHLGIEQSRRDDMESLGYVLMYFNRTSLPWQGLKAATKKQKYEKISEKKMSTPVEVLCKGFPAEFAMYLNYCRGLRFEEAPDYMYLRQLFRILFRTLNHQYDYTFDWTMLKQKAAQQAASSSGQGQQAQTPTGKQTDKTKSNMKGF
# Serine/threonine-protein kinase TBK1 (Homo sapiens), sequence (Q9UHD2 whole entry): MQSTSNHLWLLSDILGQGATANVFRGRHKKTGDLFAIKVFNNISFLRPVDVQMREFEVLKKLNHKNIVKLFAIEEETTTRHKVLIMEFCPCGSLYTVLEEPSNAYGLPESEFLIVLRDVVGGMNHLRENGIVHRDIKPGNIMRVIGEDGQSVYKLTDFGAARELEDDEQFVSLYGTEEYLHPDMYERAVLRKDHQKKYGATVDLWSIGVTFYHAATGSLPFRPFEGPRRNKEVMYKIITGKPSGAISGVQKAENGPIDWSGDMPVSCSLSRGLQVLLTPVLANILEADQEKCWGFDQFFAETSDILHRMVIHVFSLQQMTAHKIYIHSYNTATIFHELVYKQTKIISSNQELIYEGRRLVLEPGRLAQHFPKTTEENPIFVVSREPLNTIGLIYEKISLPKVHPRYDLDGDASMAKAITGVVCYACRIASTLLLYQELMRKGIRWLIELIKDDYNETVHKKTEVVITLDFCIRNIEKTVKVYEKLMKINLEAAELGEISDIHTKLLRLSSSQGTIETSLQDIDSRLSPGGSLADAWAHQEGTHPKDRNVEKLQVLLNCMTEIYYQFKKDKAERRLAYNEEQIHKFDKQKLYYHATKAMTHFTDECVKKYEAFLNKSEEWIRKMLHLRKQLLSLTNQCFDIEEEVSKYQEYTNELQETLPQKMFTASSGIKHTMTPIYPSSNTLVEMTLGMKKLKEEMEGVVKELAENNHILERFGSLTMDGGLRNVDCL
# Serine/threonine-protein kinase B-raf (Homo sapiens), P15056 [V600E], sequence (P15056 whole entry V600E): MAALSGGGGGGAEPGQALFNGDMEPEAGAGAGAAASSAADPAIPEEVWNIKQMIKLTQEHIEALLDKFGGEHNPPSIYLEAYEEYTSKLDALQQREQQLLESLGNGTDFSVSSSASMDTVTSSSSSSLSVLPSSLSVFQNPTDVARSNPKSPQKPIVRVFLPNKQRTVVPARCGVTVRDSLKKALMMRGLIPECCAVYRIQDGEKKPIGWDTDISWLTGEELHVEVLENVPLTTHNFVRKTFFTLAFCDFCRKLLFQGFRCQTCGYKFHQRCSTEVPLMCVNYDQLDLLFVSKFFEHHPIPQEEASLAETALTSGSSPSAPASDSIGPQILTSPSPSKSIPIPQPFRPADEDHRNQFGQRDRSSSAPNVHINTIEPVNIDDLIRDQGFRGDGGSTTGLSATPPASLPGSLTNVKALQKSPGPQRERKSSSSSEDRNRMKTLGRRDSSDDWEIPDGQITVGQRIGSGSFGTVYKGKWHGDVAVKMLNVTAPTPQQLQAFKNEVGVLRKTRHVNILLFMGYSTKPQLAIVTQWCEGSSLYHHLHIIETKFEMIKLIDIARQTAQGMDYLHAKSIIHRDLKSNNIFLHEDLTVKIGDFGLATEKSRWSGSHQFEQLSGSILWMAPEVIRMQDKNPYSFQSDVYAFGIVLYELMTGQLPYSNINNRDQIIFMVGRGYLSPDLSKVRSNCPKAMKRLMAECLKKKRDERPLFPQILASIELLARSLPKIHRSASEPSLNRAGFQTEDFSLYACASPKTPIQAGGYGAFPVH
# Tyrosine-protein kinase Lyn (Homo sapiens), sequence (P07948 2-512 limits assumed): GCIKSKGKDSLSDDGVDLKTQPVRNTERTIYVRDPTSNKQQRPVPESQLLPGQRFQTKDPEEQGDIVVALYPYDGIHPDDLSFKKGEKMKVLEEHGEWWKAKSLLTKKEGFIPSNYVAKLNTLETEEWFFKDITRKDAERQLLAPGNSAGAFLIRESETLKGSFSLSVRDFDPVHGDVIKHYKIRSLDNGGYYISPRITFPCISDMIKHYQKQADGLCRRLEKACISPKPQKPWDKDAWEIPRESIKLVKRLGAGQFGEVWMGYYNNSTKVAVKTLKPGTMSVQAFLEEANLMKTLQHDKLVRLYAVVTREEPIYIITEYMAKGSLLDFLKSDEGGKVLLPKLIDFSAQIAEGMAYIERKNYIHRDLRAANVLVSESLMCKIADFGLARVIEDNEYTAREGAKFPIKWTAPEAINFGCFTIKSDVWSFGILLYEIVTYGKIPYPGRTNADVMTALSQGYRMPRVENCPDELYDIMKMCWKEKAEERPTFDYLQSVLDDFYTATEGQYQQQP
# MAP kinase-activated protein kinase 2 (Homo sapiens), sequence (P49137 whole entry, looked up): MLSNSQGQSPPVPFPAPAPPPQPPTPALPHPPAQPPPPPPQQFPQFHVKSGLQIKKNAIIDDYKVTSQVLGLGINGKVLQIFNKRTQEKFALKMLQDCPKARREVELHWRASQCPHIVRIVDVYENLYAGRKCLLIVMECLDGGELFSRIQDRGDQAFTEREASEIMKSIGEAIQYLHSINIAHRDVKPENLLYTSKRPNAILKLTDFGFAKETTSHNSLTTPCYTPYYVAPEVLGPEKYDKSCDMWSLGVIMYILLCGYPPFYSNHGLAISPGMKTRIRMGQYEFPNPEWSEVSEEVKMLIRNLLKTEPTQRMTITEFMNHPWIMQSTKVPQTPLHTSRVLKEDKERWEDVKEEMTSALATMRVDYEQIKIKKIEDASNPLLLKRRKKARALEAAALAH
# Mast/stem cell growth factor receptor Kit (Homo sapiens), P10721 [L576P], sequence (P10721 whole entry L576P, canonical isoform): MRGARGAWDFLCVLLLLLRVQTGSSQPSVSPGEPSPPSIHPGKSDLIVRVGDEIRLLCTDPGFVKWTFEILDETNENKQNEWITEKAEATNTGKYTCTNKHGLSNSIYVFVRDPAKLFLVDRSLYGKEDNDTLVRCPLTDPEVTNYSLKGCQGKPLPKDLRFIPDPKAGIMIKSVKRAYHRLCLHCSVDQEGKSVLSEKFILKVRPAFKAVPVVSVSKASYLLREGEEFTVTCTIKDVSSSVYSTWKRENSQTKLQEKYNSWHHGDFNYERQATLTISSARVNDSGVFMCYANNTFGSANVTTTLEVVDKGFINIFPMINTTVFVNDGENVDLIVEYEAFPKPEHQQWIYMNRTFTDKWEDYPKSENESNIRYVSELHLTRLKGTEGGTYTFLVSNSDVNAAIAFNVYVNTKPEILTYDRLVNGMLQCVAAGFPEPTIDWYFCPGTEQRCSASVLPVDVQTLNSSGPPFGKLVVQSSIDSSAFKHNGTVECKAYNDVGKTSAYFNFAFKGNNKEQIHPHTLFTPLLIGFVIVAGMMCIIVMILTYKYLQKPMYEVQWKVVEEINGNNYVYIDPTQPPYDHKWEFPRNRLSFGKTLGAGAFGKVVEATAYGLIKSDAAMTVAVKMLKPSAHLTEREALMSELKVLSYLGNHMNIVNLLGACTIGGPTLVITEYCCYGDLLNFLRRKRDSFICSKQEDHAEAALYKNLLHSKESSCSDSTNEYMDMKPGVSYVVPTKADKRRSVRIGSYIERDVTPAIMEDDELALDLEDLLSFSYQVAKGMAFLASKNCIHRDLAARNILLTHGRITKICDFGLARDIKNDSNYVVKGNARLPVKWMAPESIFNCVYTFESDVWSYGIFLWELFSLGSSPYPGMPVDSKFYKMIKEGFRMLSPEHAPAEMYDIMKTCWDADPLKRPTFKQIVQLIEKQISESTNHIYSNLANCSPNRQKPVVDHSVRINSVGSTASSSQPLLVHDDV
smiles,measurement,setting,value
O=C1c2ccc(Nc3ccc(F)cc3F)cc2CCc2ccc(OC[C@H](O)CO)cc21 [Skepinone-L],Activity,[1],78%
same,Activity,[2],80%
same,pIC50,[3],5.80
same,Activity,[4],100%
same,Activity,[5],90%
same,Activity,[6],83%
same,Activity,[7],93%
same,Activity,[8],84%
same,Activity,[9],96%
same,Activity,[10],100%
same,Activity,[11],100%
same,Activity,[12],98%
same,Activity,[13],93%
same,pIC50,[14],7.22
same,Activity,[15],100%
same,Activity,[16],100%
same,Activity,[17],94%
same,Activity,[18],97%
same,Activity,[19],91%
same,Activity,[20],100%
same,Activity,[21],101%
same,Activity,[22],100%
same,Activity,[23],81%
same,Activity,[24],100%
same,Activity,[25],98%
same,Activity,[26],97%
same,Activity,[27],95%
same,Activity,[28],107%
